Results published in US10335409B2 (priority 2012, dated 2019).

Tests used:
Format in all cases: cell-based, hepatitis C virus
[1] = test system: genotype 1a (H77) stable HCV replicon in Huh-7-derived cells; assay: Stable subgenomic HCV replicon EC50, genotype 1a (Renilla luciferase); conditions: Hepatitis C virus, stable replicon genotype 1a, 72 h, read-out: EC50 1A RLUC
Procedure: (§1) Antiviral potency (EC50) was determined in both stable subgenomic HCV replicon cell lines and transient-transfected HCV replicon cells. The term half maximal effective concentration (EC50) refers to the concentration of a drug which induces a response halfway between the baseline and maximum after the exposure time specified below.
(§2) Stable subgenomic HCV replicons for genotype 1a, 1b, 2a, 3a, and 4a were established in Huh-7-derived cells as described by Lohmann et al (Lohmann V, Korner F, Koch J, et al Replication of subgenomic hepatitis C virus RNAs in a hepatoma cell line. Science 1999; 285:119-3) Each stable cell line contains a bicistronic HCV replicon that encodes a humanized Renilla luciferase (hRLuc) reporter gene fused to a selectable neomycin-resistance gene, followed by an EMCV IRES and the NS3-NS5B coding region of HCV. […] Luciferase activity was measured as a marker for intracellular HCV replication levels.
(§3) The genotype 1a stable replicon was derived from the H77 HCV strain and contained adaptive mutations P1496L and S2204I. The genotype 1b stable replicon was derived from the Con1 HCV strain and contained adaptive mutations E1202G, T1280I and K1846T. […] The genotype 3a stable replicon was derived from the S52 HCV strain and contained adaptive mutations P1121L, A1198T and S2210I (equivalent to S2204I in genotype 1). The genotype 4a stable replicon was derived from the ED43 HCV strain and contained adaptive mutations Q1691R and S2204I. All replicon cell lines were propagated in Huh-7-derived cells and maintained in Dulbecco's modified Eagle's Medium (DMEM) supplemented with 10% fetal bovine serum (FBS) and 0.5 mg/mL G418.
(§4) To perform EC50 assays, cells from each HCV replicon were dispensed into 384-well plates. Compounds were dissolved in DMSO at a concentration of 10 mM and diluted in DMSO using an automated pipetting instrument. Three-fold serially diluted compounds were directly added to the cells using an automated instrument. […] Seventy-two hours later, cells were lysed and Renilla luciferase activity were quantified as recommended by the manufacturer (Promega-Madison, Wis.). Non-linear regression was performed to calculate EC50 values.

[2] = test system: genotype 1b (Con1) stable HCV replicon in Huh-7-derived cells; assay: Stable subgenomic HCV replicon EC50, genotype 1b (Renilla luciferase); conditions: Hepatitis C virus, stable replicon genotype 1b, 72 h, read-out: EC50 1B RLUC
Procedure: as §1, §2, §3, §4

[3] = test system: genotype 2a (JFH-1) stable HCV replicon in Huh-7-derived cells; assay: Stable subgenomic HCV replicon EC50, genotype 2a (Renilla luciferase); conditions: Hepatitis C virus, stable replicon genotype 2a, 72 h, read-out: EC50 2A RLUC
Procedure: as §1, §2, §3, §4

[4] = test system: genotype 3a (S52) stable HCV replicon in Huh-7-derived cells; assay: Stable subgenomic HCV replicon EC50, genotype 3a (Renilla luciferase); conditions: Hepatitis C virus, 72 h, read-out: EC50 3A RLUC
Procedure: as §1, §2, §3, §4

[5] = test system: genotype 4a (ED43) stable HCV replicon in Huh-7-derived cells; assay: Stable subgenomic HCV replicon EC50, genotype 4a (Renilla luciferase); conditions: Hepatitis C virus, 72 h, read-out: EC50 4A RLUC
Procedure: as §1, §2, §3, §4

[6] = test system: genotype 1a (H77) wild type transient HCV replicon in Huh-7-derived cells; assay: Transient-transfected HCV replicon EC50, genotype 1a wild type; conditions: Hepatitis C virus, 72 h, transient-transfected replicon genotype 1a wild type, read-out: EC50 1A WT
[7] = test system: genotype 1a NS3/4a protease inhibitor resistant variant R155K transient HCV replicon in Huh-7-derived cells; assay: Transient-transfected HCV replicon EC50, genotype 1a R155K; conditions: Hepatitis C virus, 72 h, read-out: EC50 1A R155K, transient-transfected replicon genotype 1a R155K resistant variant, 72 h
[8] = test system: genotype 1b (Con1) wild type transient HCV replicon in Huh-7-derived cells; assay: Transient-transfected HCV replicon EC50, genotype 1b wild type; conditions: Hepatitis C virus, 72 h, transient-transfected replicon genotype 1b wild type, read-out: EC50 1B WT
[9] = test system: genotype 1b NS3/4a protease inhibitor resistant variant D168A transient HCV replicon in Huh-7-derived cells; assay: Transient-transfected HCV replicon EC50, genotype 1b D168A; conditions: Hepatitis C virus, 72 h, read-out: EC50 1B D168A, transient-transfected replicon genotype 1b D168A resistant variant, 72 h
[10] = test system: genotype 3a (S52) wild type transient HCV replicon in Huh-7-derived cells; assay: Transient-transfected HCV replicon EC50, genotype 3a wild type; conditions: Hepatitis C virus; transient-transfected replicon genotype 3a wild type, 72 h; read-out: EC50 3A WT

Row | SMILES | EC50 [1] [nM] | EC50 [2] [nM] | EC50 [3] [nM] | EC50 [4] [nM] | EC50 [5] [nM] | EC50 [6] [nM] | EC50 [7] [nM] | EC50 [8] [nM] | EC50 [9] [nM] | EC50 [10] [nM]
1 | COc1ccc2nc3c(nc2c1)O[C@H]1CN(C(=O)[C@H](C(C)(C)C)NC(=O)O[C@@H]2C[C@H]2CCCCC3)[C@H](C(=O)N[C@]2(C(=O)NS(=O)(=O)C3CC3)C[C@H]2CCF)[C@@H]1C [Example 22, (1aR,5S,8S,9S,10R,22aR)-5-tert-butyl-N-[(1R,25)-1-[(cyclopropylsulfonyl)carbamoyl]-2-(2-fluoroethyl)cyclopropyl]-14-methoxy-9-methyl-3,6-dioxo-1,1a,3,4,5,6,9,10,18,19,20,21,22,22a-tetradecahydro-8H-7,10-methanocyclopropa[18,19][1,10,3,6]dioxadiazacyclononadecino[11,12-b]quinoxaline-8-carboxamide] | 15 | 7.5 | 27 | 727 | 11 | 8.6 | 48 | 2.6 | 242 | –
2 | COc1ccc2nc3c(nc2c1)O[C@H]1CN(C(=O)[C@H](C(C)(C)C)NC(=O)O[C@@H]2C[C@H]2CCCCC3)[C@H](C(=O)N[C@]2(C(=O)NS(=O)(=O)C3(C)CC3)C[C@H]2CCF)[C@@H]1C [Example 23, (1aR,5S,8S,9S,10R,22aR)-5-tert-butyl-N-[(1R,2S)-2-(2-fluoroethyl)-1-{[(1-methylcyclopropyl)sulfonyl]carbamoyl}cyclopropyl]-14-methoxy-9-methyl-3,6-dioxo-1,1a,3,4,5,6,9,10,18,19,20,21,22,22a-tetradecahydro-8H-7,10-methanocyclopropa[18,19][1,10,3,6]dioxadiazacyclononadecino[11,12-b]quinoxaline-8-carboxamide] | 13 | 7.5 | 23 | 587 | 9.9 | 9.5 | 36 | 3.6 | 173 | –
3 | COc1ccc2nc3c(nc2c1)O[C@H]1CN(C(=O)[C@H](C(C)(C)C)NC(=O)O[C@@H]2C[C@H]2CCCCC3)[C@H](C(=O)N[C@]2(C(=O)NS(=O)(=O)C3CC3)C[C@H]2CC(F)F)[C@@H]1C [Example 24, (1aR,5S,8S,9S,10R,22aR)-5-tert-butyl-N-[(1R,2S)-1-[(cyclopropylsulfonoyl)carbamoyl]-2-(2,2-difluoroethyl)cyclopropyl]-14-methoxy-9-methyl-3,6-dioxo-1,1a,3,4,5,6,9,10,18,19,20,21,22,22a-tetradecahydro-8H-7,10-methanocyclopropa[18,19][1,10,3,6]dioxadiazacyclononadecino[11,12-b]quinoxaline-8-carboxamide] | 12 | 7.5 | 20 | 663 | 9.2 | 9.3 | 49 | 3.2 | 284 | –
4 | COc1ccc2nc3c(nc2c1)O[C@H]1CN(C(=O)[C@H](C(C)(C)C)NC(=O)O[C@@H]2C[C@H]2CCCCC3)[C@H](C(=O)N[C@]2(C(=O)NS(=O)(=O)C3(C)CC3)C[C@H]2CC(F)F)[C@@H]1C [Example 25, (1aR,5S,8S,9S,10R,22aR)-5-tert-butyl-N-[(1R,2S)-2-(2,2-difluoroethyl)-1-{[(1-methylcyclopropyl)sulfonyl]carbamoyl}cyclopropyl]-14-methoxy-9-methyl-3,6-dioxo-1,1a,3,4,5,6,9,10,18,19,20,21,22,22a-tetradecahydro-8H-7,10-methanocyclopropa[18,19][1,10,3,6]dioxadiazacyclononadecino[11,12-b]quinoxaline-8-carboxamide] | 8.8 | 6.3 | 13 | 409 | 7.1 | 4.4 | 17 | 3.6 | 116 | –
5 | COc1ccc2nc3c(nc2c1)O[C@H]1CN(C(=O)[C@H](C(C)(C)C)NC(=O)O[C@@H]2CCC[C@H]2CCCCC3)[C@H](C(=O)N[C@]2(C(=O)NS(=O)(=O)C3CC3)C[C@H]2C(F)F)[C@@H]1C [Example 28, (3aR,7S,10S,11S,12R,24aR)-7-tert-butyl-N-[(1R,2R)-1-[(cyclopropylsulfonyl)carbamoyl]-2-(difluoromethyl)cyclopropyl]-16-methoxy-11-methyl-5,8-dioxo-1,2,3,3a,5,6,7,8,11,12,20,21,22,23,24,24a-hexadecahydro-10H-9,12-methanocyclopenta[18,19][1,10,3,6]dioxadiazacyclononadecino[11,12-b]quinoxaline-10-carboxamide] | 6.7 | 4.6 | 6.2 | 266 | 4.1 | 3 | 9 | 3.4 | 54 | –
6 | COc1ccc2nc3c(nc2c1)O[C@H]1CN(C(=O)[C@H](C(C)(C)C)NC(=O)O[C@@]2(C)C[C@@H]2CCCCC3)[C@H](C(=O)N[C@]2(C(=O)NS(=O)(=O)C3(C)CC3)C[C@H]2C(F)F)[C@@H]1C [Example 45, (1aS,5S,8S,9S,10R,22aS)-5-tert-butyl-N-[(1R,2R)-2-(difluoromethyl)-1-{[(1-methylcyclopropyl)sulfonyl]carbamoyl}cyclopropyl]-14-methoxy-1a,9-dimethyl-3,6-dioxo-1,1a,3,4,5,6,9,10,18,19,20,21,22,22a-tetradecahydro-8H-7,10-methanocyclopropa[18,19][1,10,3,6]dioxadiazacyclononadecino[11,12-b]quinoxaline-8-carboxamide] | 21 | 8.3 | 24 | 549 | 13 | 13 | 35 | 5.3 | 88 | –
7 | CC[C@@H]1[C@@H]2CN(C(=O)[C@H](C(C)(C)C)NC(=O)O[C@@H]3C[C@H]3CCCCC(F)c3nc4ccc(OC)cc4nc3O2)[C@@H]1C(=O)N[C@]1(C(=O)NS(=O)(=O)C2(C)CC2)C[C@H]1C(F)F (stereo partly drawn) [Example 90, (1aR,5S,8S,9S,10R,22aR)-5-tert-butyl-N-[(1R,2R)-2-(difluoromethyl)-1-{[(1-methylcyclopropyl)sulfonyl]carbamoyl}cyclopropyl]-9-ethyl-18-fluoro-14-methoxy-3,6-dioxo-1,1a,3,4,5,6,9,10,18,19,20,21,22,22a-tetradecahydro-8H-7,10-methanocyclopropa[18,19][1,10,3,6]dioxadiazacyclononadecino[11,12-b]quinoxaline-8-carboxamide] | 12 | 9.6 | 8.8 | 114 | 10.4 | – | – | – | – | 43
